Entries after “also recorded” stand apart in the source; their conditions may differ. No end group written: not given here.
Key:
[1] = test system: TNF-α/TNFR1; assay: Competitive ELISA, inhibition of TNF-α binding to TNFR1; set-up: species or system human; conditions: hrTNF-α 20 ng/mL, 1 h, 37 °C, n = 3
Source text: We investigated whether H-TL1 has an inhibitory effect on the binding of TNF-α to TNFRs by using ELISA. In this assay, a fixed amount of TNF-α was mixed with different concentrations of H-TL1 and applied to the TNFR-coated ELISA plates. […] SPR analysis was used to further confirm the inhibitory effects of H-TL1 on the binding of TNF-α to TNFR1. As expected, TNF-α was strongly bound with the chip-immobilized TNFR1.
The T7Select1-2b display vector, T7 select primers, blocking reagent, and elution buffer were purchased from Novagen (Merck, Kenilworth, NJ, USA). […] DSS (36–50 kDa) was bought from MP Biomedicals (Solon, OH, USA). MTT, actinomycin D, and LPS were purchased from Sigma-Aldrich (St. Louis, MO, USA).
ELISA plates were coated with sTNFR1 (100 ng/well in 100 μL of 100 mM sodium carbonate, pH 9.6) for 20 h at 4 °C, followed by blocking with phosphate buffered saline (PBS) containing 0.2% Tween-20 (PBST) and 1% BSA for 1 h at 37 °C. Different concentrations of H-TL1 (0–1 μM) were mixed with hrTNF-α (20 ng/mL) in PBS containing 1% BSA, and 100 μL/well was placed in the ELISA plates and incubated for 1 h at 37 °C. After washing with PBST, an HRP-labeled monoclonal antibody against TNF-α was added, followed by incubation at 37 °C for 1 h. The plates were then washed, incubated with o-phenylenediamine, and the absorbance was subsequently measured at 450 nm.

[2] = test system: TNF-α/TNFR2; assay: Competitive ELISA, inhibition of TNF-α binding to TNFR2; set-up: species or system human; conditions: sTNFR2-coated plate, H-TL1 0–1 μM, n = 3
[3] = test system: IL-1β-induced phosphorylation of IκB; assay: Western blot, IL-1β-induced phosphorylation of IκB; type: cell-based; conditions: IL-1β as activator of NF-κB
Source text: The NF-κB and MAPKs pathways are key signaling pathways of TNF-α-mediated inflammation. Therefore, we analyzed the mechanisms underlying H-TL1-induced inhibition of TNF-α-mediated inflammation by Western blotting in HEK-293 cells. […] To identify the specific effects of H-TL1 on TNF-α downstream signaling, we induced IL-1β as a potent activator of NF-κB that is specific to that pathway.
For Western blotting, the cell or tissue specimen extracts were resolved in a 10% SDS-PAGE gel, and then the separated proteins were transferred to a nitrocellulose filter membrane. The antigens were detected by using specific antibodies against total and phosphorylated IκB, p38, ERK, and JNK followed by incubation with the respective secondary antibodies. GAPDH was simultaneously detected as the control to compare the protein loading in each lane. The mouse monoclonal anti-IκB, mouse monoclonal anti-p-IκB (Ser32/36), rabbit monoclonal anti-ERK, and rabbit monoclonal anti-p-ERK (Thr202/Tyr204) antibodies were from Cell Signaling Technologies (Beverly, MA, USA). The mouse polyclonal anti-p-p38 (Thr180/Tyr182), rabbit polyclonal anti-p38, rabbit monoclonal anti-p-JNK (Thr183/Tyr185), and mouse monoclonal anti-JNK antibodies were from Thermo Fisher Scientific (Rockford, IL, USA). […]

[4] = test system: DSS-induced inflammation of colonic mucosa, BALB/c mice; assay: Colon histopathology in DSS-induced colitis; type: in vivo, mouse; conditions: for colon morphology (H&E): H&E 40×
Experimental: To induce colitis, 6–8 week old male BALB/c mice were administered 2.5% DSS solution in their drinking water for 7–8 consecutive days, ad libitum. Importantly, 30–40 kDa DSS was used to establish the animal model in this study because it is known to induce more severe colitis than 5 and 500 kDa DSS [37]. The mice were concomitantly administered H-TL1 (0.5 or 1 mg/kg) once daily for 7–8 consecutive days by intraperitoneal injection. Establishment of the DSS-induced colitis was evidenced by an increase in DAI, with associated weight loss, loose stool consistency, and presence of blood in the feces. DAI was monitored during the entire experiment and was assessed according to the method described in Table 1.
The colonic tissue samples were fixed in 4% neutral formalin, dehydrated with increasing concentrations of ethanol, embedded in paraffin, and subsequently cut into 5-μm thick sections, which were mounted on slides, cleared, hydrated, and stained with hematoxylin and eosin (H&E). Histological grading was assessed according to previously described criteria (Table 2), and the scoring criteria used were similar to those described previously.

[5] = test system: LPS-induced acute shock in C57BL/6 mice; assay: LPS-induced acute shock, survival; type: in vivo, mouse; conditions: for survival rate: within 96 h, LPS + vehicle all died within 30 h, n = 8
Source text: The H. cyanocinctus specimens were captured during September 2005 in the South China Sea near Guangdong Province, People’s Republic of China. After collection, the snakes were killed, and the venom glands were isolated and immediately frozen in liquid nitrogen until use. HEK-293 human embryonic kidney and L929 mouse fibroblast cell lines were obtained from ATCC and cultured in Dulbecco’s modified Eagle’s medium (DMEM, Sigma-Aldrich, St. Louis, MO, USA) containing 10% (v/v) heat-inactivated fetal bovine serum (FBS, Gibco, BRL, Grand Island, NY, USA) at 37 °C in an atmosphere of 5% CO2. The BLT5403 E. coli strain (used as the phage host strain) was from Novagen (Merck) and was cultured at 37 °C for propagation. The specific pathogen-free (SPF) male BALB/c and C57BL/6 mice (both 6–8 weeks old), weighing 20 ± 2 g were purchased from Shanghai SLAC Laboratory Animal Co., Ltd. (Shanghai, China). The mice were housed in animal facilities with 50% humidity under a 12-h light-dark cycle, fed a standard pellet diet, and provided with tap water ad libitum. The animal experimental protocols in this research, including venom gland isolation and the mouse study, were approved by the Animal Care and Use Committee of the Second Military Medical University.
The LPS-induced acute shock model was established in male C57BL/6 mice (6–8 weeks old) that were randomly allocated to five groups. LPS was administered (15 mg/kg body weight) to induce acute shock. The LPS- or normal saline-treated mice were injected with 100 μL of normal saline with or without LPS intraperitoneally, while the H-TL1 and LPS-treated mice were each administered H-TL1 at three doses of 20, 40, and 80 μg/kg 1, 3, and 5 h after the LPS injection (Figure 5A). The mice were observed every 4 h to evaluate mortality.

ATSKPSLKC-OH [H-TL1] was tested, and the “inhibition of the binding of TNF-α with TNFR1” value ([1]; H-TL1 1 μM, plate coated with sTNFR1 100 ng/well, PBS + 1% BSA, absorbance 450 nm) was about 60%, the “inhibition of TNF-α/TNFR1 binding, concentration dependence” value ([1]; H-TL1 0.1–1000 nM) was “obviously inhibits the binding of TNF-α with TNFR1; also recorded: inhibited the binding of TNF-α with TNFR1 in a concentration-dependent manner” and the “inhibition of TNF-α/TNFR2 binding, in words” value [2] was “had little impact on TNF-α/TNFR2 interactions; also recorded: the percent inhibition had no apparent linear relation to the H-TL1 concentration”. The “effect on the binding of TNF-α with TNFR2 (inhibition)” value ([2]; hrTNF-α 20 ng/mL) was “approximately 20%”, the “inhibition of IL-1β-induced phosphorylation of IκB” value [3] was “failed to inhibit the phosphorylation of IκB induced by IL-1β” and the “colon morphology (H&E)” value ([4]; H-TL1 0.5 mg/kg, 0.5 mg/kg) was “serious colonic damage that was comparable to that of the DSS + vehicle-treated mice; also recorded: had little effect on DSS-induced colonic inflammation”. For the same substance, the “colon morphology (H&E)” value ([4]; H-TL1 1 mg/kg, 1 mg/kg) was “remarkably alleviated; also recorded: alleviated DSS-induced colonic inflammation”, the total histological score ([4]; H-TL1 1 mg/kg, n = 8, ** p < 0.01 vs. DSS only group) was “significantly reduces DSS-induced inflammation of colonic mucosa” and the survival rate ([5]; H-TL1 40 μg/kg at 1, 3, and 5 h after LPS 15 mg/kg i.p., * p < 0.05) was 37.5%. For the same substance, the survival rate ([5]; H-TL1 80 μg/kg at 1, 3, and 5 h after LPS 15 mg/kg i.p., *** p < 0.001) was 62.5% and the “protection from LPS-induced acute shock, dose dependence” value ([5]; H-TL1 20, 40, and 80 μg/kg, LPS 15 mg/kg i.p.) was “protected the mice from LPS-induced acute shock in a dose-dependent manner”.
